Laboratory results reported in US20180044343A1, “BICYCLIC IMIDAZOLO DERIVATIVE” (Sumitomo Dainippon Pharma Co., Ltd., priority 2015, published 2018).
pIC50: −log10 of the molar value.

How the values were obtained:
PDE1B [1] = target: T1, PDE1B (Homo sapiens, UniProt Q01064); test: In vitro HTRF PDE1 inhibition assay (PDE1B); format: biochemical; conditions: in vitro PDE1B HTRF Assay; read-out: IC50
PDE1A3 [2] = target: T2, PDE1A3 (Homo sapiens, UniProt P54750); test: In vitro HTRF PDE1 inhibition assay (PDE1A3); format: biochemical; conditions: PDE1A3, 100 nM cyclic GMP
From the text: (§1) An exemplary procedure for the in vitro Homogenous Time Resolved Fluorescence assay, which can be used to determine the inhibitory action of compounds of the present invention toward PDE1 or its isoforms, follows.
(§2) The HTRF PDE1 assay utilized the HTRF (Homogenous Time Resolved Fluorescence) technology, which is based on the competition between unlabeled cyclic nucleotide and cyclic nucleotide labeled with XL665 for the binding to cyclic nucleotide-specific antibody labeled with cryptate. The HTRF signal is thus inversely proportional to the concentration of cyclic nucleotide being measured. Since phosphodiesterases break down cyclic nucleotides, the HTRF signal was used to determine PDE activity.
(§3) The Cisbio cGMP HTRF assay kit (Cat no: 62GM2PEC) was utilized. Cyclic GMP was diluted to 200 nM in HTRF assay buffer (1 mM CaCl2, 10 mM MgCl2, 10 mM Tris-HCl, 0.1% BSA, pH 7.4). 10 μl of compound or DMSO was diluted in 200 nM cyclic GMP solution and added to wells of a 96 well white plate to give 100 nM cyclic GMP in 1% DMSO final concentration. PDE (1A3, 1B or 1C) was diluted to 2× working concentration in HTRF assay buffer with 2 μg/ml Calmodulin, and 10 μl was added to initiate the reaction. The plate was then incubated for 45 minutes at 27° C. d2-Labelled cyclic GMP and anti-cGMP cryptate were diluted in 50 mM phosphate buffer, 0.8 M KF, 1% Triton X100, 0.2% BSA, pH 7.0. Following incubation 10 μl d2-cGMP, then 10 μl anti cGMP cryptate were added to each well and the plate was incubated for 60 minutes at room temperature. The plate was then read on Perkin Elmer EnVision at 2 different FRET readings ex/em 340 nm/665 nm and 340 nm/615 nm.
(§4) Compounds having an IC50 of <1 μM are denoted as +++. Compounds having an IC50 of 1-10 μM are denoted as ++. Compounds having an IC50 of 10-100 μM are denoted as +.

PDE1C [3] = target: T3, PDE1C (Homo sapiens, UniProt Q14123); test: In vitro HTRF PDE1 inhibition assay (PDE1C); format: biochemical; conditions: 100 nM cyclic GMP
From the text: as §1, §2, §3, §4

PDE1B [4] = target: T1, PDE1B; test: In vitro SPA PDE1 inhibition assay (PDE1B); format: biochemical; conditions: [3H]-cGMP 100 nM
Experimental: (§5) The commercially available Scintillation Proximity Assay (SPA) system (Perkinelmer) was used for PDE1 inhibition assays. SPA Yttrium Silicate beads preferentially binds to non-cyclic GMP compared to cyclic GMP (cGMP) in the presence of zinc sulphate, which enables to measure the amount of enzyme reaction product ([^3H]-GMP) by scintillation counting.
(§6) For PDE1 inhibition assay, 10 μl of the test compounds in 5% dimethyl sulfoxide diluted in SPA assay buffer (1 mM CaCl2, 10 mM MgSO4, 10 mM Tris-HCl, pH 7.4) were placed in a 96-well white microtiter plate, and 20 μl of [^3H]-cGMP solution (100 nM final concentration, Perkinelmer) in SPA assay buffer was added. Assays were initiated by adding 20 μl of PDE (1A3, 1B or 1C) enzyme solution including calmodulin (final concentration 1 μg/ml). After 30 min incubation at 27° C., the reaction was stopped by the addition of 50 μl of a suspension of 10 mg/ml SPA beads in 18 mM ZnSO4. The microtiter plates were settled for 60 min, and then were measured in a TopCount NXT scintillation counter (PerkinElmer). IC50 values were determined from sigmoidal curves by plotting the percentage of PDE activity versus log compound concentration. IC50 was defined as the concentration of the test compounds required to inhibit the cyclic nucleotide hydrolyzing activities of tested PDEs by 50%.

PDE1A3 [5] = target: T2, PDE1A3; test: In vitro SPA PDE1 inhibition assay (PDE1A3); format: biochemical; conditions: PDE1A3, [3H]-cGMP 100 nM
Experimental: as §5, §6

PDE1C [6] = target: T3, PDE1C; test: In vitro SPA PDE1 inhibition assay (PDE1C); format: biochemical; conditions: [3H]-cGMP 100 nM
Experimental: as §5, §6

[7] = Evaluation of bioavailability, PK test in rats; format: in vivo; conditions: rat; 7 week-old SD rats, intravenous vs oral administration, plasma LC-MS
Experimental: This test can be used to assess pharmacokinetics of the compounds of the present invention. Each compound of the invention was administered to 7 week-old SD rats intravenously with a solution in saline: 0.1N HCl=9:1 or orally with a 0.5% suspension in methyl cellulose, and each blood sample was collected at an appropriate interval as follows:
5, 15, and 30 minutes, and 1, 2, 4, 6, and 24 hours after intravenous administration
15 and 30 minutes, and 1, 2, 4, 6, and 24 hours after oral administration
The plasma was obtained from each blood, and the concentration of each compound in the plasma was measured with an LC-MS to calculate each pharmacokinetic parameter based on the concentration change.

[8] = Test for drug transportation to brain in rats; format: in vivo; conditions: rat; SD rats, oral, one hour after administration; non-binding drug concentration ratio between brain and plasma
From the text: Test for Drug Transportation to Brain in Rats
This test can be used to assess transportation of the compounds of the present invention to the brain. Each compound of the invention was orally administered to 7 week-old SD rats with a 0.5% suspension in methyl cellulose, and each plasma and brain were collected one hour after administration to measure the concentration of each compound in the plasma and the brain with an LC-MS.
Each protein binding ratio of the compounds in the plasma and the brain was measured by the equilibrium dialysis method.
The obtained concentrations and protein binding ratios of the compounds in the plasma and the brain can be applied to the following equation to calculate Kp, uu, brain (i.e., non-binding drug concentration ratio between brain and plasma).
Kp, uu, brain=[Compound concentration in brain×(100−Protein binding ratio in brain (%))/100]/[Compound concentration in plasma×(100−Protein binding ratio in plasma (%))/100]

[9] = test system: cognitive dysfunction in PCP-treated rats; test: Novel object recognition test in rats repeatedly treated with phencyclidine (PCP); format: in vivo; conditions: rats given PCP 3 mg/kg i.p. twice a day for 10 days; compound 1 or 3 mg/kg orally 60 minutes before test; compared to PCP+vehicle group
Experimental: Since an N-Methyl-D-aspartate receptor antagonist phencyclidine (PCP) has been known to cause schizophrenia-like symptoms including cognitive dysfunction in humans, PCP-treated animals have been widely used as a schizophrenic animal model. Using rats to which PCP was repeatedly administered as a schizophrenic animal model, the improvement in cognitive dysfunction with the compounds of the invention was evaluated in the novel object recognition test. Rats were habituated to the test environment which is a box (50 cm×50 cm×35 cm) with no object inside for 1 hour per day for 3 days. On the test day, rats were again put into the test box with no object inside to habituate themselves for three minutes. The rats were then put into the test box with two identical objects inside and were made to explore inside for three minutes for a training trial. After one minute, they were put into the test box with one of the objects (i.e., the familiar object) that was the same as used in the training trial and another object (i.e., a novel object) inside and were made to explore inside for three minutes for a test trial. Cognitive function was evaluated on the basis of preference for the novel object in the test trial utilizing rats' habit of exploring a novel object longer than a familiar object. Discrimination Index was calculated from the following equation as an index for preference of a novel object.
Discrimination Index=(Time to explore novel object−Time to explore familiar object)/(Time to explore novel object+Time to explore familiar object)

T1 sequence (Q01064 whole entry): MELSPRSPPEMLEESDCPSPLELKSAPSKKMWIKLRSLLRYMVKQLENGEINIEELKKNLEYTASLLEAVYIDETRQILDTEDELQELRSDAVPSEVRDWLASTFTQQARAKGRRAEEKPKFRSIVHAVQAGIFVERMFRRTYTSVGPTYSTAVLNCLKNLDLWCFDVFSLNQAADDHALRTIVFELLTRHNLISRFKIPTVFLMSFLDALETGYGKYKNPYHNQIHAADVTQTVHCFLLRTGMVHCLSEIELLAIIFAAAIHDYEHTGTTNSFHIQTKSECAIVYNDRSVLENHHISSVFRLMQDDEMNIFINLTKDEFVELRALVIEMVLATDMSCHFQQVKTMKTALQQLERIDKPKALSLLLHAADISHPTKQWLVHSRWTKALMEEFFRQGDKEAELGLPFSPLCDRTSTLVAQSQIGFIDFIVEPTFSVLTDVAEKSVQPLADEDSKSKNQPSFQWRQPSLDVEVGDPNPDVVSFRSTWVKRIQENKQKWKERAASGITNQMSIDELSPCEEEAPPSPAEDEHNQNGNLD

Structure (SMILES)	pIC50 (PDE1B [1])	IC50 (PDE1A3 [2]) [µM]	IC50 (PDE1C [3]) [µM]	IC50 (PDE1B [4]) [µM]	IC50 (PDE1A3 [5]) [µM]	IC50 (PDE1C [6]) [µM]	bioavailability [7] [%]	Kp uu at 1 h [8]	Discrimination Index in novel object recognition test [9]
Cn1c(OC[C@H]2CC[C@H](C(F)(F)F)CC2)nn2c(C3CCOCC3)ncc2c1=O [Example 245, 3-methyl-7-(tetrahydro-2H-pyran-4-yl)-2-{[trans-4-(trifluoromethyl)cyclohexyl]methoxy}-imidazo[5,1-][1,2,4]triazin-4(3H)-one]	> 6.00	< 1	< 1	0.036	0.113	0.547	30.4	0.72	significant increase
CCn1c(O[C@H]2CC[C@H](COC)CC2)nn2c(C3CCOCC3)ncc2c1=O [Example 317, 3-ethyl-2-{[trans-4-(methoxymethyl)cyclohexyl]oxy}-7-(tetrahydro-2H-pyran-4-yl)-imidazo[5,1-][1,2,4]triazin-4(3H)-one]	> 6.00	< 1	< 1	0.027	0.042	0.194	–	–	–
CCc1nn2c(C3CCOCC3)ncc2c(=O)n1CC1CCC(F)(F)CC1 [Example 239, 3-[(4,4-Difluorocyclohexyl)methyl]-2-ethyl-7-(tetrahydro-2H-pyran-4-yl)imidazo[5,1-f][1,2,4]triazin-4(3H)-one]	> 6.00	< 1	< 1	0.079	0.065	0.125	–	–	–
CCO[C@H]1CC[C@H](COc2nn3c(C4CCOCC4)ncc3c(=O)n2C)CC1 [Example 246, 2-[(trans-4-ethoxycyclohexyl)methoxy]-3-methyl-7-(tetrahydro-2H-pyran-4-yl)imidazo[5,1-][1,2,4]triazin-4(3H)-one]	> 6.00	< 1	< 1	0.064	0.289	0.788	51.6	0.26	–
CNc1nn2c(C3CCOCC3)ncc2c(=O)n1Cc1ccccc1 [Example 200]	> 6.00	< 1	< 1	0.109	0.133	0.024	–	–	–
Cc1nn2c(C3CCOCC3)ncc2c(=O)n1Cc1ccccc1 [Example 238, 3-Benzyl-2-methyl-7-(tetrahydro-2H-pyran-4-yl)imidazo[5,1-f][1,2,4]triazin-4(3H)-one]	> 6.00	< 1	< 1	0.145	0.137	0.027	–	–	–
CCOC[C@H]1CC[C@H](Oc2nn3c(C4CCOCC4)ncc3c(=O)n2C)CC1 [Example 256, 2-{[trans-4-(ethoxymethyl)cyclohexyl]oxy}-3-methyl-7-(tetrahydro-2H-pyran-4-yl)-imidazo-[5,1-][1,2,4]triazin-4(3H)-one]	> 6.00	< 1	< 1	–	–	–	14.3	–	–
Cn1c(OCc2ccc(F)cc2)nn2c(C3CCOCC3)nc(F)c2c1=O [Example 116, 5-Fluoro-2-[(4-fluorobenzyl)oxy]-3-methyl-7-(tetrahydro-2H-pyran-4-yl)imidazo[5,1-f][1,2,4]triazin-4(3H)-one]	> 6.00	< 1	< 1	0.084	0.207	0.771	–	–	–

Continued, in another order:

pIC50 (PDE1B [1])	IC50 (PDE1A3 [2]) [µM]	IC50 (PDE1C [3]) [µM]	IC50 (PDE1B [4]) [µM]	IC50 (PDE1A3 [5]) [µM]	IC50 (PDE1C [6]) [µM]	bioavailability [7] [%]	Kp uu at 1 h [8]	Structure (SMILES)	Discrimination Index in novel object recognition test [9]
> 6.00	< 1	< 1	0.028	0.074	0.199	–	–	CCn1c(OC[C@H]2CC[C@H](OC)CC2)nn2c(C3CCOCC3)ncc2c1=O [Example 91]	–
> 6.00	< 1	< 1	0.033	0.034	0.065	13.4	0.96	COc1nn2c(C3CCOCC3)ncc2c(=O)n1CC1CCC(F)(F)CC1 [Example 115, 3-[(4,4-difluorocyclohexyl)methyl]-2-methoxy-7-(tetrahydro-2H-pyran-4-yl)imidazo[5,1-][1,2,4]triazin-4(3H)-one]	significant increase
> 6.00	< 1	< 1	0.051	0.144	0.425	55.6	0.3	CC(C)c1ncc2c(=O)n(C)c(NCc3ccc(Cl)cn3)nn12 [Example 149, 2-{[(5-chloropyridin-2-yl)methyl]amino}-3-methyl-7-(propan-2-yl)imidazo[5,1-f][1,2,4]triazin-4(3H)-one]	significant increase
> 6.00	< 1	< 1	0.028	0.023	0.057	–	1.02	COc1nn2c(C3CCOCC3)ncc2c(=O)n1Cc1ccc(Cl)cc1 [Example 109, 3-(4-chlorobenzyl)-2-methoxy-7-(tetrahydro-2H-pyran-4-yl)imidazo[5,1-f][1,2,4]triazin-4(3H)-one]	–
> 6.00	< 1	< 1	0.096	0.121	0.192	–	–	COc1nn2c(C3CCOCC3)ncc2c(=O)n1C[C@H]1CC[C@@H](OC)CC1 [Example 101]	–
